{"source": "patent US11850273B2", "about": "“Chemical reprogramming of human glial cells into neurons for brain and spinal cord repair” (The Penn State Research Foundation, priority 2014, dated 2023)", "key": {"human astrocytes": {"system": "human astrocytes", "test": "Withdrawal of each individual compound from the 9 small molecule pool", "type": "cell-based", "conditions": "14 days post initial treatment; for effect of removal from the 9 small molecule pool on number of converted neurons / reprogramming efficiency: SAG and Purmo removed together", "text": "This Example describes analysis of functional roles of each individual compound during chemical reprogramming. To dissect out the contribution of each single molecule toward reprogramming, we performed a series of experiments by withdrawing each individual compound from our cocktail pool (FIG. 6). […] FIG. 6K illustrates the summarized data of drug withdrawing experiments. While it is not a surprise that Tzv had no effect since it mainly acts as a cell survival factor, it was unexpected to find that removing TTNPB had no effect. […] On the other hand, the inhibition of Notch signaling, GSK-3β, and BMP/TGFβ signaling pathways appeared to be important for reprogramming astrocytes into neurons. […] Reprogramming human astrocytes into neurons. The astrocytes were cultured on poly-D-lysine (Sigma) coated coverslips (12 mm) at a density of 50,000 cells per coverslip in 24-well plates (BD Biosciences). The cells were cultured in human astrocyte medium until 90% confluence. At day 0 before reprogramming, half of the culture medium was replaced by N2 medium consisting of DMEM/F12 (Gibco), penicillin/streptomycin (Gibco) and N2 supplements (Gibco). The following day (Day 1), the culture medium was completely replaced by N2 medium supplemented with small molecules, or with 1% DMSO in control group. […] To promote synaptic maturation of converted neurons, brain-derived neurotrophic factor (BDNF, 20 ng/Ml, Invitrogen), Insulin-like growth factor 1 (IGF-1, 10 ng/ml, Invitrogen) and neurotrophin 3 (NT-3, 10 ng/ml, Invitrogen) were added in neuronal differentiation medium at day 9 and were refreshed every four days until day 30 (Song et al., 2002)."}, "[1]": {"system": "human astrocyte-converted neurons", "test": "Patch clamp whole-cell recordings of human astrocyte-converted neurons"}, "[2]": {"conditions": "cited from earlier work"}, "[3]": {"system": "Aβ40 and Aβ42 in SH-SY5Y neuroblastoma cells", "conditions": "cited from earlier work"}, "TGFβR-I": {"molecular_target": "TGFβR-I (Homo sapiens, UniProt P36897)", "sequence (P36897 34-503)": "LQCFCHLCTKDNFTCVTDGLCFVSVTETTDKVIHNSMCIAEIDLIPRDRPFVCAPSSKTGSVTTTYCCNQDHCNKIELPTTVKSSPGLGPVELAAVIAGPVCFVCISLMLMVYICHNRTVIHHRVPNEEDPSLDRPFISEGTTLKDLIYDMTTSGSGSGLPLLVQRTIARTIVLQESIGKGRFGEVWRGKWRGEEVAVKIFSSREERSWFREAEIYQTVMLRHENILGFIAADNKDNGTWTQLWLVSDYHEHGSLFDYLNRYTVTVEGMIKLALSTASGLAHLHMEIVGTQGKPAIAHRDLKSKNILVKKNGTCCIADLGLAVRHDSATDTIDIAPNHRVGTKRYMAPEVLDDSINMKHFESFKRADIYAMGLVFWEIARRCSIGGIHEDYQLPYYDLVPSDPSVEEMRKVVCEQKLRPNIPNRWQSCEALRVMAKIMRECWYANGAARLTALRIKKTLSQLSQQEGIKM", "conditions": "cited from earlier work"}, "[4]": {"system": "Aβ42 in human neuroblastoma cells", "conditions": "cited from earlier work"}, "gamma secretase": {"molecular_target": "gamma secretase", "conditions": "read-out: IC50 γ-secretase; cited from earlier work"}, "[5]": {"system": "Aβ40 in human neuroblastoma cells", "conditions": "cited from earlier work"}, "GSK-3β": {"molecular_target": "GSK-3β (Homo sapiens, UniProt P49841)", "sequence (P49841 whole entry, species assumed)": "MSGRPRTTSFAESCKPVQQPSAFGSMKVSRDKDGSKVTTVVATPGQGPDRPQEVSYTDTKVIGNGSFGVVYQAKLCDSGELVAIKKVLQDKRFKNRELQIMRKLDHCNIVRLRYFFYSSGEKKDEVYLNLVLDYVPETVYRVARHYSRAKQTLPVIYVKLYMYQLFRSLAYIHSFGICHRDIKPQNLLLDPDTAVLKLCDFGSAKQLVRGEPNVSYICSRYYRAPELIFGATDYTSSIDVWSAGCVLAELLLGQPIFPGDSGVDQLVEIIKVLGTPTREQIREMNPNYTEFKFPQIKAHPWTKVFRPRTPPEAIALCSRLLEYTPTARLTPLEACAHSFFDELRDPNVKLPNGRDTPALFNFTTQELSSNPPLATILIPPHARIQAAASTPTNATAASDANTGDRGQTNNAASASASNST", "conditions": "cited from earlier work"}, "[6]": {"system": "mouse embryonic stem cells", "conditions": "At 400 Nm; cited from earlier work"}, "Notch": {"system": "Notch", "conditions": "cited from earlier work"}, "[7]": {"system": "BACE1, BACE2, α-secretase, the proteasome or GSK3β", "conditions": "cited from earlier work"}, "[8]": {"system": "Notch cleavage and Notch-mediated intracellular signaling", "conditions": "cited from earlier work"}, "[9]": {"system": "human cortical astrocytes (HA1800, ScienCell)", "type": "cell-based", "conditions": "VPA in reprogramming medium longer than 2 days"}}, "note": "Entries after “also recorded” stand apart in the source; their conditions may differ.", "data": [{"compound": "NC(=O)c1ccc(-c2nc(-c3ccc4c(c3)OCO4)c(-c3ccccn3)[nH]2)cc1", "note": "[SB431542, -[4-(1,3-benzodioxol-5-yl)-5-(2-pyridinyl)-1H-imidazol-2-yl]benzamide]", "values": [{"measurement": "effect of individual removal from the 9 small molecule pool on number of converted neurons / reprogramming efficiency", "setting": "human astrocytes", "result": "significantly reduced"}]}, {"compound": "C/C(=C\\c1ccc(C(=O)O)cc1)c1ccc2c(c1)C(C)(C)CCC2(C)C", "note": "[TTNPB]", "values": [{"measurement": "effect of individual removal from the 9 small molecule pool on number of converted neurons / reprogramming efficiency", "setting": "human astrocytes", "result": "did not affect; also recorded: did not have a significant effect"}]}, {"compound": "c1ccc2c(Oc3nc(Nc4ccc(N5CCOCC5)cc4)c4ncn(C5CCCCC5)c4n3)cccc2c1", "note": "[Purmo, purmorphamine]", "values": [{"measurement": "effect of removal from the 9 small molecule pool on number of converted neurons / reprogramming efficiency", "setting": "human astrocytes", "result": "slightly reduced"}]}, {"compound": "DNQX", "values": [{"measurement": "effect on the majority of synaptic events at −70 mV", "setting": "[1]", "result": "blocked"}]}, {"compound": "O=S(=O)(NC1CCC(c2cc(F)ccc2F)(S(=O)(=O)c2ccc(Cl)cc2)CC1)C(F)(F)F", "note": "(stereo not shown) [MRK 560]", "values": [{"measurement": "oral bioavailability", "setting": "[2]", "result": "Orally bioavailable."}, {"measurement": "IC50", "setting": "[3]", "result": 0.00065, "unit": "µM"}]}, {"compound": "O=C(NCc1ccccc1)c1csc(Nc2ccncn2)n1", "note": "[Tzv, thiazovivin]", "values": [{"measurement": "effect of individual removal from the 9 small molecule pool on number of converted neurons / reprogramming efficiency", "setting": "human astrocytes", "result": "did not affect; also recorded: did not have a significant effect"}]}, {"compound": "LY364947", "values": [{"measurement": "selectivity over TGFβR-II", "setting": "TGFβR-I", "result": "shows 7-fold selectivity over TGFβR-II."}]}, {"compound": "CC(C)C[C@H](NC(=O)[C@H](Cc1ccccc1)C[C@@H](O)[C@H](Cc1ccccc1)NC(=O)OC(C)(C)C)C(=O)N[C@@H](Cc1ccccc1)C(N)=O", "note": "[L-685, 458]", "values": [{"measurement": "IC50", "setting": "[4]", "result": 0.067, "unit": "µM"}, {"measurement": "IC50", "setting": "gamma secretase", "result": 0.017, "unit": "µM"}, {"measurement": "IC50", "setting": "[5]", "result": 0.048, "unit": "µM"}]}, {"compound": "N#Cc1ccc2[nH]c(O)c(-c3ccc(CN4CCOCC4)cn3)c2c1", "note": "[AZD1080]", "values": [{"measurement": "oral activity and brain permeability", "setting": "[2]", "result": "selective, orally active, brain permeable GSK3 inhibitor"}]}, {"compound": "C[C@H](NC(=O)Cc1cc(F)cc(F)c1)C(=O)N[C@H](C(=O)OC(C)(C)C)c1ccccc1", "note": "[DAPT]", "values": [{"measurement": "effect of individual removal from the 9 small molecule pool on number of converted neurons / reprogramming efficiency", "setting": "human astrocytes", "result": "significantly reduced; also recorded: most significant reduction"}]}, {"compound": "Nc1cccc(-c2cc3c(Oc4cccc(O)c4)ncnc3[nH]2)c1", "note": "[TWS119]", "values": [{"measurement": "IC50", "setting": "GSK-3β", "result": 0.03, "unit": "µM"}, {"measurement": "neurogenesis in mouse embryonic stem cells", "setting": "[6]", "result": "TWS119 induces neurogenesis in mouse embryonic"}]}, {"compound": "C[C@H](NC(=O)CCC(F)(F)F)C(=O)N[C@@H]1C(=O)N(CCO)c2ncccc2-c2ccccc21", "note": "[LY3039478]", "values": [{"measurement": "IC50", "setting": "Notch", "result": 0.00041, "unit": "µM"}]}, {"compound": "COc1oc(=O)c2cc(N)ccc2c1Cl", "note": "[LK 6]", "values": [{"measurement": "activity on BACE1, BACE2, α-secretase, the proteasome or GSK3β", "setting": "[7]", "result": "signaling. Displays no activity on BACE1, BACE2,"}, {"measurement": "effect on Notch cleavage and Notch-mediated intracellular signaling", "setting": "[8]", "result": "no effect"}]}, {"compound": "CCCC(CCC)C(=O)O", "note": "[VPA, valproic acid]", "values": [{"measurement": "effect of individual removal from the 9 small molecule pool on number of converted neurons / reprogramming efficiency", "setting": "human astrocytes", "result": "slightly reduced"}, {"measurement": "cell death", "setting": "[9]", "result": "increased cell death"}]}, {"compound": "CNC1CCC(N(Cc2cccc(-c3ccncc3)c2)C(=O)c2sc3ccccc3c2Cl)CC1", "note": "(stereo not shown) [SAG]", "values": [{"measurement": "effect of removal from the 9 small molecule pool on number of converted neurons / reprogramming efficiency", "setting": "human astrocytes", "result": "slightly reduced"}]}, {"compound": "CC(C)(C(=O)NCC(F)(F)C(F)(F)F)C(=O)N[C@@H]1C(=O)Nc2ccccc2-c2ccccc21", "note": "[RO4929097]", "values": [{"measurement": "IC50", "setting": "gamma secretase", "result": 0.004, "unit": "µM"}]}]}
